Laboratory results published in paper PMC12589732, “Chemical composition and biological effects of Lavandula angustifolia Mill., essential oils” (AMB Express, 2025).

Target: T1, Tyrosinase
T1 construct: gene PPO3
Test: L-DOPA oxidation, […] nm
Assay type: biochemical
Conditions: substrate L-DOPA 5 mM stock; 50 mM phosphate pH 6.5; 37 °C; 10 min preincubation

In the case of `O=c1c(O)c(-c2ccc(O)c(O)c2)oc2cc(O)cc(O)c12` [Quercetin], the Dermatoprotective is reported as 242.99 ± 2.67 µg/mL.
